Each block holds one molecule with its values, some of them ahead of it. No end group written: not given here.
How the values were obtained:
[1] = molecular target: Class I HLA on the EBV-transformed B cell lines (human); assay: flow cytometry on BOLETH cells; inhibition of the binding of biotinylated p45 (10 uM) by the antibody diluted 1/500
[2] = molecular target: Class I HLA on the EBV-transformed B cell lines (human); assay: flow cytometry on MOU cells; inhibition of the binding of biotinylated p45 (10 uM) by the antibody diluted 1/500
[3] = molecular target: Class I HLA on the EBV-transformed B cell lines (human); assay: flow cytometry on RSH cells; inhibition of the binding of biotinylated p45 (10 uM) by the antibody diluted 1/500
[4] = molecular target: Class I HLA on the EBV-transformed B cell lines (human); assay: flow cytometry on HOM2 cells; inhibition of the binding of biotinylated p45 (10 uM) by the antibody diluted 1/500
[5] = molecular target: Class I HLA on the EBV-transformed B cell lines (human); assay: flow cytometry on OLGA cells; inhibition of the binding of biotinylated p45 (10 uM) by the antibody diluted 1/500
[6] = molecular target: Class I HLA on the EBV-transformed B cell lines (human); assay: flow cytometry on SWEIG cells; inhibition of the binding of biotinylated p45 (10 uM) by the antibody diluted 1/500
HLA-DQ = assay: Inhibition of biotinylated p45 binding to cell lines by anti-HLA-DQ antibody (33.1); design: species or system human; details: for Percentage of inhibition (%) aDQ: biotinylated p45 10 μM
Description: (§1) In second place, the HLA-DR4 cell line was incubated in the presence of the biotinylated P45 peptides and antibodies selected due to their specificity to HLA-DR, HLA-DP, HLA-DQ and Class I HLA respectively (FIG. 3).
(§2) In a 96-well plate with U-shaped bottom, the HLA-DR4 cell line was seeded (already defined); (2×10^5 per well), also adding biotinylated P45 peptides (10 μM), alone or together with supernatant of the hybridomas: L243 anti-HLA-DR (ATCC Ref: HB-55), or W6/32 anti-Class I (ATCC Ref: HB-95) or the antibodies 33.1 anti-HLA-DQ or anti-HLA-DP B7/21, which were provided by Dr. Ghislaine Sterkers. All were diluted to (1/500) in a final volume of 100 μl of RPMI with 2.5% FBS.
(§3) % Inhibition=100×((Fp45+aHLA−Fblnk)/(Fp45−Fblnk))
(§4) where Fblnk is the fluorescence measured when the cells were cultured without adding peptide or antibodies (blank), Fp45 is the fluorescence measured when it was incubated with the biotinylated P45 peptides alone, and Fp45+aHLA is the fluorescence measured when it was measured with the biotinylated p45 together with the corresponding HLA antibodies.
(§5) All the assays were performed in triplicate.
(§6) In this way, these tests were repeated on the HLA-DR1, HLA-DR3, HLA-DR7, HLA-DR8, HLA-DR11 cell lines. The inhibition percentages obtained are set down in Table 2.

HLA-DP = assay: Inhibition of biotinylated p45 binding to cell lines by anti-HLA-DP antibody (B7/21); design: species or system human; details: biotinylated p45 10 μM
Description: as §1, §2, §3, §4, §5, §6

HLA-DR4 cell line = molecular target: T1, HLA-DR4 cell line (Homo sapiens, UniProt P01903+P01911, /P40V/Q125Y/R42H/S133A/S149N/S66Y/V115G/V209L/W38E); assay: Direct binding of biotinylated p45 at different concentrations to the HLA-DR4 cell line, fluorescence (FIG. 2); details: range of concentrations tested
T1 construct: host or cells: EBV-transformed B lymphocyte line homozygous for HLA-DR4
Description: In first place, tests were performed for binding to HLA-DR in the different cell lines, incubated with biotinylated p45 at different concentrations. To avoid the possible crystallization of the peptide, this was solubilized with the aid of a sonicator. […] As can be verified, the peptide binding is dose-dependent in the range of concentrations tested.

Class I HLA = assay: Inhibition of biotinylated p45 binding to cell lines by anti-Class I antibody (W6/32); design: species or system human; details: biotinylated p45 10 μM
Description: as §1, §2, §3, §4, §5, §6

HLA-DR = assay: Inhibition of biotinylated p45 binding to cell lines by anti-HLA-DR antibody (L243); design: species or system human; details: for Percentage of inhibition (%) aDR: biotinylated p45 10 μM
Description: as §1, §2, §3, §4, §5, §6

[7] = molecular target: T2, HLA-DR8 (DRB1*0802) on OLGA cells (human); assay: flow cytometry on OLGA cells; inhibition by anti-HLA-DR antibody
T2 construct: whole, on cells; On the EBV-transformed B cell line OLGA (ECACC 88052100)

[8] = cell line BOLETH, DR4, DRB1*0401-DQB1*0302
[9] = cell line HOM2, DR1, DRB1*0101-DQB1*0501
[10] = cell line MOU, DR7, DRB1*0701-DQB1*0201
[11] = cell line OLGA, DR8, DRB1*0802-DQB1*0402
[12] = cell line RSH, DR3, DRB1*0302-DQB1*0402
[13] = cell line SWEIG, DR11, DRB1*11011-DQB1*0301

Percentage of inhibition (%) [1]: 1% | Percentage of inhibition (%) [2]: 0% | Percentage of inhibition (%) [3]: 6% | Percentage of inhibition (%) [4]: 13% | Percentage of inhibition (%) [5]: 5% | Percentage of inhibition (%) [6]: 0%
Molecule: W6/32 anti-Class I (ATCC Ref: HB-95) (antibody)

Molecule: biotinylated p45: p45 peptide conjugated with biotin (EZ-Link Sulfo-NHS-LC-Biotin) (FKYRMMMRMRAAA; also: biotin (EZ-Link Sulfo-NHS-LC-Biotin), site not given here)
Capacity of binding to HLA-DQ (HLA-DQ; all the cell lines (Table 2)): high capacity of binding | Percentage of inhibition (%) aDQ (HLA-DQ; [8]): 75% | Percentage of inhibition (%) aDQ (HLA-DQ; [9]): 75% | Percentage of inhibition (%) aDQ (HLA-DQ; [10]): 98% | Percentage of inhibition (%) aDQ (HLA-DQ; [11]): 88% | Percentage of inhibition (%) aDQ (HLA-DQ; [12]): 98% | Percentage of inhibition (%) aDQ (HLA-DQ; [13]): 83% | Percentage of inhibition (%) aDP (HLA-DP; [8]): 7% | Percentage of inhibition (%) aDP (HLA-DP; [9]): 23% | Percentage of inhibition (%) aDP (HLA-DP; [10]): 13% | Percentage of inhibition (%) aDP (HLA-DP; [11]): 4% | Percentage of inhibition (%) aDP (HLA-DP; [12]): 28% | Percentage of inhibition (%) aDP (HLA-DP; [13]): 0% | Dose dependence of peptide binding (fluorescence) (HLA-DR4 cell line): dose-dependent | Percentage of inhibition (%) aClI (Class I HLA; [8]): 1% | Percentage of inhibition (%) aClI (Class I HLA; [9]): 13% | Percentage of inhibition (%) aClI (Class I HLA; [10]): 0% | Percentage of inhibition (%) aClI (Class I HLA; [11]): 5% | Percentage of inhibition (%) aClI (Class I HLA; [12]): 6% | Percentage of inhibition (%) aClI (Class I HLA; [13]): 0% | Binding of biotinylated peptide to HLA-DR1 (HLA-DR; HLA-DR1 cell line): bound to HLA-DR1 | Capacity of binding to HLA-DR (HLA-DR; all the cell lines (Table 2)): high capacity of binding | Percentage of inhibition (%) aDR (HLA-DR; [8]): 59% | Percentage of inhibition (%) aDR (HLA-DR; [9]): 78% | Percentage of inhibition (%) aDR (HLA-DR; [10]): 71% | Percentage of inhibition (%) aDR (HLA-DR; [11]): 92% | Percentage of inhibition (%) aDR (HLA-DR; [12]): 86% | Percentage of inhibition (%) aDR (HLA-DR; [13]): 89%

binding result [7]: binds
B1: biotinylated p45 (peptide)
peptide: FKYRMMMRMRAAA
modifications: also: biotinylated (Sulfo-NHS-LC-Biotin), site not given here
notes: also called biotinylated P45 peptide; biotinylated P45 peptides

Source: patent US20090220533A1, “Novel T-Helper Antigenic Determinant (THD) Peptides” (priority 2005, published 2009)
